The values below come from ChEMBL document CHEMBL3046328, “Ligand-based pharmacophore detection, screening of potential pharmacophore and docking studies, to get effective glycogen synthase kinase inhibitors” (Med Chem Res, 2013).

In one assay the target is T1, Aurora kinase A (Homo sapiens, UniProt O14965).
T1 sequence (O14965 whole entry): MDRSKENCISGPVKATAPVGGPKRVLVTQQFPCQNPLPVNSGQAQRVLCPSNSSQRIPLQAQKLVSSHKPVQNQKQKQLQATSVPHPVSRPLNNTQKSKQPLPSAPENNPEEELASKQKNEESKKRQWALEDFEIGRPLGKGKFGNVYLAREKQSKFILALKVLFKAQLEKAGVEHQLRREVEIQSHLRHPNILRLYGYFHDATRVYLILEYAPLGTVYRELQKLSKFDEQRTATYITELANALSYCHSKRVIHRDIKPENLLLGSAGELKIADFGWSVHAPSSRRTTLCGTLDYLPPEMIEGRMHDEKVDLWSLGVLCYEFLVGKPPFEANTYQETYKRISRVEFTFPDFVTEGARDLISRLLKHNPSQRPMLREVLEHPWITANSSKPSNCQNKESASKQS
In words: Inhibition of Aurora2 (unknown origin).

The target of assay [1] is Proto-oncogene tyrosine-protein kinase Src (Homo sapiens, UniProt P12931). In words: Inhibition of SRC (unknown origin).
Sequence of Proto-oncogene tyrosine-protein kinase Src (P12931 2-536 limits assumed): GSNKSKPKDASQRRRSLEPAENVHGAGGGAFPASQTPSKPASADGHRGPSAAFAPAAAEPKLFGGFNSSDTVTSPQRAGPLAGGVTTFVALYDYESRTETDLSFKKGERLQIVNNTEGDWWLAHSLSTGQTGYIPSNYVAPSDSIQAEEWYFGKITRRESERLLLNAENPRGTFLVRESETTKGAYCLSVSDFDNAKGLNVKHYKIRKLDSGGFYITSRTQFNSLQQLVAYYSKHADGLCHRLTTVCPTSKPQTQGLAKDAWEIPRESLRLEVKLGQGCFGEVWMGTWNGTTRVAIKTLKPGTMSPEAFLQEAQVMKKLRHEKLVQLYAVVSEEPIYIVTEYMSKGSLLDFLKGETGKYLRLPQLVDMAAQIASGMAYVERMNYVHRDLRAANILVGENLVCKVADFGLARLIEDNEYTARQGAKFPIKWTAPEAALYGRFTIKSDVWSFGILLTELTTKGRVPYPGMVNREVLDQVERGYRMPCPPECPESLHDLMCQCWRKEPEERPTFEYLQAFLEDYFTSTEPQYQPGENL
Assay [2] concerns the target T2, Glycogen synthase kinase-3 (Homo sapiens, UniProt P49840+P49841). As to the kind of experiment: Inhibition of GSK3 (unknown origin). Format: protein assay.
The target of assay [3] is Mitogen-activated protein kinase 1 (Homo sapiens, UniProt P28482). As to the kind of experiment: Inhibition of ERK2 (unknown origin).
Sequence of Mitogen-activated protein kinase 1 (P28482 whole entry): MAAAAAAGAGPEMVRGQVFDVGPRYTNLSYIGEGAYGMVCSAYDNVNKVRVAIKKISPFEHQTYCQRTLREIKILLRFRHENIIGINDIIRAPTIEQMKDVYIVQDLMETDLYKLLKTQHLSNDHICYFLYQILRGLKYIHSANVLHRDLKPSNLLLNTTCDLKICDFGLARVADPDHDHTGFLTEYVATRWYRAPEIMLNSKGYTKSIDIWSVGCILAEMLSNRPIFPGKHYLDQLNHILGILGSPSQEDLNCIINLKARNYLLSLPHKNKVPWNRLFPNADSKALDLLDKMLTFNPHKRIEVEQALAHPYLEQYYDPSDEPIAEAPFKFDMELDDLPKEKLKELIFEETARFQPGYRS
For assay [4], the target named is Glycogen synthase kinase-3 beta (Homo sapiens, UniProt P49841). As to the kind of experiment: Inhibition of GSK3beta (unknown origin).
Sequence of Glycogen synthase kinase-3 beta (P49841 whole entry): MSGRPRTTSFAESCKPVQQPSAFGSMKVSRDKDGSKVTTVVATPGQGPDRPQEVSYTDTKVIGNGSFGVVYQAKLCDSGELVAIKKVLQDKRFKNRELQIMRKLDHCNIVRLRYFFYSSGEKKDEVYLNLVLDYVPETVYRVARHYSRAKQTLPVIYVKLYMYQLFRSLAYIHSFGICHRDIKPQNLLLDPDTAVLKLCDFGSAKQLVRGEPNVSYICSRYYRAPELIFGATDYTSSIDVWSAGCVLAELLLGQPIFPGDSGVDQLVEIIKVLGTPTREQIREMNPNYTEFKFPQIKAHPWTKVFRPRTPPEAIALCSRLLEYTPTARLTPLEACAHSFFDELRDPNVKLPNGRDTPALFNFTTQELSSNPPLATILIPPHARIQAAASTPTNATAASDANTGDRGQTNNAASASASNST
The target in assay [5] is T2, Glycogen synthase kinase-3. In words: Inhibition of GSK3 (unknown origin) at 1 uM. The class given is protein assay.

T2 sequence (P49840 whole entry, looked up): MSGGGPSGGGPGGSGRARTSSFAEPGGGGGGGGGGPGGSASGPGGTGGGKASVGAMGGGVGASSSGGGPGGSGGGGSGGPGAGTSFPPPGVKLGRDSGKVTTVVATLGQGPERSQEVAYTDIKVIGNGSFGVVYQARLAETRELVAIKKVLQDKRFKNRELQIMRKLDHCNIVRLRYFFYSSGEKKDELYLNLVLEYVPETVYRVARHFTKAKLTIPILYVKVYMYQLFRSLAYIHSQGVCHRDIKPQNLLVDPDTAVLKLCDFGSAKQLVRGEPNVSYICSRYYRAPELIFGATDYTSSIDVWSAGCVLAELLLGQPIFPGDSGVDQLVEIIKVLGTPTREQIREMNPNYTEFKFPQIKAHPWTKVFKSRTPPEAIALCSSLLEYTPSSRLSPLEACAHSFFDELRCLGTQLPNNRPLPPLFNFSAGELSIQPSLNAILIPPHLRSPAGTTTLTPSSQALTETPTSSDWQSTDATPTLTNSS
T2 sequence (P49841 whole entry, looked up): as the sequence (P49841 whole entry) above

By Ki is commonly meant a measure of affinity in units of concentration, obtained from inhibition or displacement. Low values mean a stronger hold on the target, high ones a looser hold on the target. As to `Cc1cccn2cc(CN(Cc3nc4ccccc4c(=O)[nH]3)C(C)C)nc12`, the Ki is under 100 µM on Aurora kinase A, under 0.1 µM in assay [1], under 100 µM in assay [2] and 1000 µM in assay [3].
In general, IC50 refers to the midpoint of a concentration-inhibition curve. Low readings indicate greater potency, high ones weaker potency. In assay [2], `O=C(N=c1[nH]c2ccccc2[nH]1)NC[C@H]1CCC[C@@H](CNC(=O)N=c2[nH]c3ccccc3[nH]2)C1` gave a concentration for half-maximal inhibition (IC50) of 1 µM.
As for `Cc1nc[nH]c1[C@H]1c2nc[nH]c2CCN1Cc1nc2ccccc2[nH]1`, the inhibitory constant (Ki) on Aurora kinase A was under 100 µM; in assay [1] it was under 0.1 µM; in assay [2], under 100 µM; in assay [3], 1000 µM.
`CCN(CC)CCCNc1nc2ccccc2c2[nH]c3ccc(OC)cc3c12` gave an IC50 in assay [2] of 1 µM.
Take `O=[N+]([O-])c1ccc2c(c1)[n+]([O-])c1c3ccccc3[nH]c1[n+]2[O-]`: at Aurora kinase A, the concentration for half-maximal inhibition (IC50) is under 5 µM. Further, the inhibition constant (Ki) in assay [3] is under 1 µM.
Molecule `Cc1ccc(-c2c[nH]c(C3COCCN3Cc3c[nH]c4ccccc34)n2)cc1` (stereo not given) had a half-inhibitory concentration (IC50) in assay [4] of 0.12 µM.
For `Cc1nc[nH]c1[C@@H]1c2nc[nH]c2CCN1Cc1nc2ccccc2[nH]1`, the inhibitory constant (Ki) on Aurora kinase A is under 100 µM; in assay [1] it was under 0.1 µM; in assay [2] it was under 100 µM; in assay [3], 1000 µM.
In assay [2], `C[n+]1c2ccccc2[n+]2[nH]c3ccccc3n12` returned a half-inhibitory concentration (IC50) of 1 µM.
`CCN(Cc1cn2cccc(C)c2n1)Cc1nc2ccccc2c(=O)[nH]1` showed an IC50 in assay [2] of under 10 µM.
The term inhibition denotes the relative decrease from the control value, in per cent. Lower therefore signals little suppression. Turning to `CCSc1nc2c([nH]1)[nH]c1ccccc12`, the inhibition in assay [5] worked out at 63%.
